Measured values from ChEMBL document CHEMBL4342421, “Current scenario of tetrazole hybrids for antibacterial activity” (Eur J Med Chem, 2019).

How the values were obtained:
Escherichia coli [1] = assay: Antimicrobial activity against Escherichia coli assessed as zone of inhibition at 5 mg/ml; format: functional; conditions: read-out: IZ
Staphylococcus aureus [2] = assay: Antimicrobial activity against Staphylococcus aureus assessed as zone of inhibition at 5 mg/ml; format: functional; conditions: read-out: IZ
Klebsiella pneumoniae [3] = assay: Antimicrobial activity against Klebsiella pneumoniae assessed as zone of inhibition at 5 mg/ml; format: functional; conditions: read-out: IZ
Pseudomonas aeruginosa [4] = assay: Antimicrobial activity against Pseudomonas aeruginosa assessed as zone of inhibition at 5 mg/ml; format: functional; conditions: read-out: IZ
Aspergillus niger [5] = assay: Antifungal activity against Aspergillus niger; format: functional
Fusarium oxysporum = assay: Antifungal activity against Fusarium oxysporum; format: functional
Aspergillus flavus [6] = assay: Antifungal activity against Aspergillus flavus; format: functional
[7] = Antifungal activity against Rhodotorula ingeniosa assessed as zone of inhibition at 10 ug/ml; format: functional; conditions: Sampaiozyma ingeniosa; read-out: IZ
Aspergillus niger [8] = assay: Antifungal activity against Aspergillus niger assessed as zone of inhibition at 10 ug/ml; format: functional; conditions: read-out: IZ
Candida albicans [9] = assay: Antifungal activity against Candida albicans assessed as zone of inhibition at 10 ug/ml; format: functional; conditions: read-out: IZ
Pseudomonas = assay: Antimicrobial activity against Pseudomonas assessed as zone of inhibition at 10 ug/ml; format: functional; conditions: read-out: IZ
Escherichia coli [10] = assay: Antimicrobial activity against Escherichia coli assessed as zone of inhibition at 10 ug/ml; format: functional; conditions: read-out: IZ
Bacillus subtilis [11] = assay: Antimicrobial activity against Bacillus subtilis assessed as zone of inhibition at 10 ug/ml; format: functional; conditions: read-out: IZ
Streptomyces = assay: Antimicrobial activity against Streptomyces assessed as zone of inhibition at 10 ug/ml; format: functional; conditions: read-out: IZ
Lactococcus lactis = assay: Antimicrobial activity against Streptococcus lactis assessed as zone of inhibition at 10 ug/ml; format: functional; conditions: read-out: IZ
Penicillium = assay: Antifungal activity against Penicillium assessed as zone of inhibition at 10 ug/ml; format: functional; conditions: read-out: IZ
Staphylococcus aureus [12] = assay: Antimicrobial activity against Staphylococcus aureus; format: functional
Bacillus cereus [13] = assay: Antimicrobial activity against Bacillus cereus assessed as zone of inhibition at 250 ug/ml; format: functional; conditions: read-out: IZ
Pseudomonas aeruginosa [14] = assay: Antimicrobial activity against Pseudomonas aeruginosa assessed as zone of inhibition at 250 ug/ml; format: functional; conditions: read-out: IZ
Candida albicans [15] = assay: Antifungal activity against Candida albicans assessed as zone of inhibition at 250 ug/ml; format: functional; conditions: read-out: IZ
Escherichia coli [16] = assay: Antimicrobial activity against Escherichia coli assessed as zone of inhibition at 250 ug/ml after 24 hrs by disk diffusion method; format: functional; conditions: read-out: IZ
Escherichia coli [17] = assay: Antimicrobial activity against Escherichia coli assessed as zone of inhibition at 250 ug/ml; format: functional; conditions: read-out: IZ
Bacillus cereus [18] = assay: Antimicrobial activity against Bacillus cereus; format: functional
Staphylococcus aureus [19] = assay: Antimicrobial activity against Staphylococcus aureus assessed as zone of inhibition at 250 ug/ml; format: functional; conditions: read-out: IZ
Escherichia coli [20] = assay: Antimicrobial activity against Escherichia coli; format: functional
Candida albicans [21] = assay: Antifungal activity against Candida albicans; format: functional
Pseudomonas aeruginosa [22] = assay: Antimicrobial activity against Pseudomonas aeruginosa; format: functional
Aspergillus niger [23] = assay: Antifungal activity against Aspergillus niger assessed as zone of inhibition at 250 ug/ml; format: functional; conditions: read-out: IZ
Streptococcus pneumoniae = assay: Antimicrobial activity against Streptococcus pneumoniae; format: functional
Proteus vulgaris = assay: Antimicrobial activity against Proteus vulgaris; format: functional
Bacillus subtilis [24] = assay: Antimicrobial activity against Bacillus subtilis; format: functional
Salmonella typhimurium = assay: Antimicrobial activity against Salmonella typhimurium; format: functional, Salmonella enterica subsp. enterica serovar Typhimurium; conditions: Salmonella enterica
Proteus mirabilis = assay: Antimicrobial activity against Proteus mirabilis; format: functional
Bacillus thuringiensis = assay: Antimicrobial activity against Bacillus thuringiensis; format: functional
Prescottella equi = assay: Antimicrobial activity against Rhodococcus equi; format: functional; conditions: Rhodococcus (subgen. Prescottella) equi
Staphylococcus aureus [25] = assay: Antibacterial activity against methicillin resistant Staphylococcus aureus N315 after 24 hrs by two-fold broth serial dilution method; format: functional; conditions: N315, 24 h
Candida albicans [26] = assay: Antifungal activity against Candida albicans ATCC 76615 after 24 hrs; format: functional; conditions: ATCC 76615, 24 h
Aspergillus flavus [27] = assay: Antifungal activity against Aspergillus flavus after 24 hrs; format: functional
Micrococcus luteus = assay: Antibacterial activity against Micrococcus luteus ATCC 4698 after 24 hrs by two-fold broth serial dilution method; format: functional; conditions: ATCC 4698, 24 h
Shigella dysenteriae = assay: Antimicrobial activity against Shigella dysenteriae after 24 hrs by two-fold broth serial dilution method; format: functional
Cyberlindnera jadinii = assay: Antifungal activity against Candida utilis after 24 hrs; format: functional; conditions: Williopsis jadinii
Saccharomyces cerevisiae = assay: Antifungal activity against Saccharomyces cerevisiae after 24 hrs; format: functional
Escherichia coli [28] = assay: Antimicrobial activity against Escherichia coli JM 109 after 24 hrs by two-fold broth serial dilution method; format: functional; conditions: JM 109, 24 h
Pichia norvegensis = assay: Antifungal activity against Candida mycoderma after 24 hrs; format: functional
Bacillus subtilis [29] = assay: Antibacterial activity against Bacillus subtilis ATCC 21216 after 24 hrs by two-fold broth serial dilution method; format: functional; conditions: ATCC 21216, 24 h
Pseudomonas aeruginosa [30] = assay: Antimicrobial activity against Pseudomonas aeruginosa ATCC 27853 after 24 hrs by two-fold broth serial dilution method; format: functional; conditions: ATCC 27853, 24 h
Pseudomonas aeruginosa [31] = assay: Antimicrobial activity against Pseudomonas aeruginosa ATCC 27853 after 24 hrs by disc diffusion method; format: functional; conditions: ATCC 27853, 24 h
Aspergillus flavus [32] = assay: Antifungal activity against Aspergillus flavus NCIM 524 after 3 to 4 days; format: functional
Talaromyces marneffei = assay: Antifungal activity against Penicillium marneffei after 3 to 4 days; format: functional
Klebsiella pneumoniae [33] = assay: Antimicrobial activity against Klebsiella pneumoniae after 24 hrs by disc diffusion method; format: functional
Escherichia coli [34] = assay: Antimicrobial activity against Escherichia coli ATCC 25922 after 24 hrs by disc diffusion method; format: functional; conditions: ATCC 25922, 24 h
Aspergillus fumigatus = assay: Antifungal activity against Aspergillus fumigatus NCIM 902 after 3 to 4 days; format: functional
[35] = tested on: Trichophyton mentagrophytes; assay: Antifungal activity against Trichophyton mentagrophytes after 3 to 4 days; format: functional
Staphylococcus aureus [36] = assay: Antimicrobial activity against Staphylococcus aureus ATCC 25923 after 24 hrs by disc diffusion method; format: functional; conditions: ATCC 25923, 24 h

Cc1nc2ccccc2cc1Cn1cc(CSc2nnnn2-c2ccccc2)nn1
11 to 19 mm: zone of inhibition at 5000 µg/mL (Escherichia coli [1]) | zone of inhibition at 5000 µg/mL (Staphylococcus aureus [2]) | zone of inhibition at 5000 µg/mL (Klebsiella pneumoniae [3]) | zone of inhibition at 5000 µg/mL (Pseudomonas aeruginosa [4])

Cc1ccc2nc(C)c(Cn3cc(CSc4nnnn4-c4ccccc4)nn3)cc2c1
11 to 19 mm: zone of inhibition at 5000 µg/mL (Escherichia coli [1]) | zone of inhibition at 5000 µg/mL (Staphylococcus aureus [2]) | zone of inhibition at 5000 µg/mL (Klebsiella pneumoniae [3]) | zone of inhibition at 5000 µg/mL (Pseudomonas aeruginosa [4])

Clc1ccccc1C(c1ccccc1)(c1ccccc1)n1ccnc1 [CLOTRIMAZOLE]
100 µg/mL: MIC (Aspergillus niger [5]) | MIC (Fusarium oxysporum) | MIC (Aspergillus flavus [6])

CC(=O)OC[C@H]1O[C@H](n2nnnc2Cn2nnc3ccccc32)[C@H](OC(C)=O)[C@@H](OC(C)=O)[C@@H]1OC(C)=O
15 to 17 mm: zone of inhibition at 10 µg/mL [7] | zone of inhibition at 10 µg/mL (Aspergillus niger [8]) | zone of inhibition at 10 µg/mL (Candida albicans [9]) | zone of inhibition at 10 µg/mL (Pseudomonas) | zone of inhibition at 10 µg/mL (Escherichia coli [10]) | zone of inhibition at 10 µg/mL (Bacillus subtilis [11]) | zone of inhibition at 10 µg/mL (Streptomyces) | zone of inhibition at 10 µg/mL (Lactococcus lactis) | zone of inhibition at 10 µg/mL (Penicillium)

O=[N+]([O-])c1cccc(-c2nnnn2-c2nc3ccccc3s2)c1
50 to 100 µg/mL: MIC (Staphylococcus aureus [12]) | MIC (Aspergillus niger [5]) | MIC (Bacillus cereus [18]) | MIC (Escherichia coli [20]) | MIC (Candida albicans [21]) | MIC (Pseudomonas aeruginosa [22])
16 to 26 mm: zone of inhibition at 250 µg/mL (Bacillus cereus [13]) | zone of inhibition at 250 µg/mL (Pseudomonas aeruginosa [14]) | zone of inhibition at 250 µg/mL (Candida albicans [15]) | zone of inhibition at 250 µg/mL (Escherichia coli [17]) | zone of inhibition at 250 µg/mL (Staphylococcus aureus [19]) | zone of inhibition at 250 µg/mL (Aspergillus niger [23])
18 to 26 mm: zone of inhibition at 250 µg/mL (Escherichia coli [16])

CO/N=C(\C(=O)N[C@@H]1C(=O)N2C(C(=O)O)=C(CSc3nc(=O)c(O)nn3C)CS[C@H]12)c1csc(N)n1 [CEFTRIAXONE]
0.063 to 8 µg/mL: MIC (Streptococcus pneumoniae) | MIC (Proteus vulgaris) | MIC (Bacillus subtilis [24]) | MIC (Salmonella typhimurium) | MIC (Proteus mirabilis) | MIC (Bacillus thuringiensis) | MIC (Prescottella equi)

CCn1cc(C(=O)O)c(=O)c2cc(F)c(N3CCN(C)CC3)cc21 [PEFLOXACIN]
28 to 36 mm: zone of inhibition at 5000 µg/mL (Escherichia coli [1]) | zone of inhibition at 5000 µg/mL (Staphylococcus aureus [2]) | zone of inhibition at 5000 µg/mL (Klebsiella pneumoniae [3]) | zone of inhibition at 5000 µg/mL (Pseudomonas aeruginosa [4])

Cc1cc(=O)oc2cc(OCC(O)Cn3nnnc3C)ccc12 (stereo unspecified)
4 to 512 µg/mL: MIC (Staphylococcus aureus [25]) | MIC (Candida albicans [26]) | MIC (Aspergillus flavus [27]) | MIC (Micrococcus luteus) | MIC (Shigella dysenteriae) | MIC (Cyberlindnera jadinii) | MIC (Saccharomyces cerevisiae) | MIC (Escherichia coli [28]) | MIC (Pichia norvegensis) | MIC (Bacillus subtilis [29]) | MIC (Pseudomonas aeruginosa [30])

Cc1nnc(SCC2=C(C(=O)O)N3C(=O)[C@@H](NC(=O)Cn4cnnn4)[C@H]3SC2)s1 [CEFAZOLIN]
0.063 to 8 µg/mL: MIC (Streptococcus pneumoniae) | MIC (Proteus vulgaris) | MIC (Bacillus subtilis [24]) | MIC (Salmonella typhimurium) | MIC (Proteus mirabilis) | MIC (Bacillus thuringiensis) | MIC (Prescottella equi)

CCn1nnnc1SCCCSc1nnnn1-c1ccccc1
6.25 to 50 µg/mL: MIC (Pseudomonas aeruginosa [31]) | MIC (Aspergillus flavus [32]) | MIC (Talaromyces marneffei) | MIC (Klebsiella pneumoniae [33]) | MIC (Escherichia coli [34]) | MIC (Aspergillus fumigatus) | MIC [35] | MIC (Staphylococcus aureus [36])

COc1ccc(-n2cc(-c3nnn[nH]3)nn2)cc1
100 µg/mL: MIC (Aspergillus niger [5]) | MIC (Fusarium oxysporum) | MIC (Aspergillus flavus [6])

c1ccc(-n2nnnc2SCCCSc2nnnn2C2CC2)cc1
6.25 to 50 µg/mL: MIC (Pseudomonas aeruginosa [31]) | MIC (Aspergillus flavus [32]) | MIC (Talaromyces marneffei) | MIC (Klebsiella pneumoniae [33]) | MIC (Escherichia coli [34]) | MIC (Aspergillus fumigatus) | MIC [35] | MIC (Staphylococcus aureus [36])
